# Reference: patent US11679100B2, “Methods of enhancing immunity” (The Regents of the University of California, priority 2018, dated 2023)
# Experiments:
# [1] = biological target: T1, CD11b (Homo sapiens, UniProt P11215); test: Cell adhesion assay on ICAM-1 coated substrates; format: cell-based; settings: LA1 20 μM
# T1 construct: Human CD14+ monocytes were isolated from the PBMCs; endogenous in cells; host or cells: primary human CD14+ monocytes from whole-blood PBMCs
# Protocol: Cell Adhesion Assay— PBMCs were extracted from human whole blood using the vendor instructions for Sep Mate-50 tubes (#15450, Stem Cell). Human CD14+ monocytes were isolated from the PBMCs using the vendor instructions for the EasySep™ Human Monocyte Isolation Kit (Catalog #19359, Stem Cell). Briefly, 384-well plates (#3700, Corning) were coated with recombinant human ICAM1 (750 ng/mL, #720-IC, R&D Systems), or M1/70 (10 ug/mL, #101202, Biolegend) or IB4 (10 μg/mL, #167-020, Ancell) overnight at 4° C. Wells were blocked with 1% milk dissolved in TBS for 1 hr at room temperature. All wells received Ca^2+/Mg^2+ ions (1 mM each physiological concentration, baseline control) except for the positive control wells that received 1 mM Mn^2+ ions. A stock solution of LA1 agonist was prepared by dissolving the compound in DMSO at a concentration of 2 mM and final dilution of LA1 in wells was 20 μM. The final concentration of DMSO in all wells was 1%. 45,000 human monocytes were seeded in each well. Some wells received human monocytes cells that were pre-blocked with anti-human CD11b (M1/70) for 15 min at 4° C. The plates were incubated at 37° C. for 30 min followed by 30 min of inversion at room temperature to remove non-adherent cells. Cells were fixed, stained with DAPI and counted using the Opera High Content Screening System (Perkin Elmer). Assays were performed in six replicate wells.
# [2] = tested on: bone marrow derived murine macrophages; test: mRNA/miRNA expression in LA1-treated macrophages; format: cell-based
# Protocol: Murine macrophage differentiation and culture-Bone marrow derived cells (BMDC) were aseptically harvested from 6-8 week-old female mice by flushing leg bones of euthanized mice with phosphate buffered saline (PBS), 0.5% BSA, 2 mM EDTA, incubating in red cell lysis buffer (155 mM NH4Cl, 10 mM NaHCO3 and 0.1 mM EDTA) and centrifuging over Histopaque 1083 to purify the mononuclear cells. Approximately 5×10^7 BMDC were purified by gradient centrifugation from the femurs and tibias of a single mouse. Purified mononuclear cells were cultured in RPMI+20% serum+50 ng/ml M-CSF (PeproTech). Macrophage Polarization-Bone marrow derived macrophages were polarized with either IFNγ (20 ng/ml, Peprotech) plus LPS (100 ng/ml, Sigma) or LPS alone for 24 h or IL-4 (20 ng/ml, Peprotech) for 24-48 h. In some cases, macrophages were incubated with inhibitors of Stat3 ([…]) or cMyc (10058-F4, Selleck). […] Secreted protein was measured in culture supernatants by ELISA assays. […] Sybr green-based qPCR was performed using primers to murine Gapdh (Mm_Gapdh_1_SG), Arg1 (Mm_[…]_SG_QT00134288) Tgfb (Mm_Tgfb_1_SG Qiagen QT00145250), […] (Mm_Il10_1_SG Qiagen QT00106169), Il6 (Mm_Il6_1_SG Qiagen QT00098875), Nos2 (Mm_Nos2_1_SG Qiagen QT00100275), Il12b (Mm_Il12b_1_SG Qiagen QT00153643), Ifng (Mm_Ifng 1_SG Qiagen QT01038821), Il1b (Mm_Il1b_2_SG Qiagen QT01048355), Tnfa (Mm_Tnfa_1_SG Qiagen QT00104006), Vegfa (Mm_Vegfa_1_SG Qiagen QT00160769), Pdgfb (Mm_Pdgfb_1_SG Qiagen QT00266910) and human GAPDH (Hs_GAPDH_1_SG Qiagen QT00079247), ARG1 (Hs_Arginase_1_SG Qiagen QT00068446, IL6 (Hs_Il6_1_SG Qiagen QT00083720), NOS2 (Hs_NOS2_1_SG Qiagen QT00068740), IL12B (Hs_IL12B_1_SG Qiagen QT00000364), and PDGFB (Hs_PDGFB_1_SG Qiagen QT00001260) (Qiagen QuantiTect Primer Assay). mRNA levels were normalized to Gapdh or GAPDH (ΔCt=Ct gene of interest-Ct Gapdh) and reported as relative mRNA expression (ΔΔCt=2^-(ΔCt sample-ΔCt control)) or fold change. […]
smiles,measurement,setting,value
"O=C(O)c1ccc(-c2ccc(/C=C3\SC(=S)N(Cc4ccccc4)C3=O)o2)cc1 [LA1, leukadherin 1]",myeloid cell adhesion to ICAM-1 coated substrates,[1],stimulated myeloid cell adhesion to ICAM-1 coated substrates
same,"expression of Il1b, Tnfa, Il12, Nos2 and Ifng mRNAs",[2]; IFNγ+LPS stimulated bone marrow derived murine macrophages,"increases in expression of Il1b, Tnfa, Il12, Nos2 and Ifng mRNAs"
same,Let7a expression,[2]; macrophages,stimulated Let7a expression
same,Pdgfb and Il6 expression,[2]; macrophages,inhibited Pdgfb and Il6 expression
